Marks after values point to notes of the source that are not given here.
Tests used:
[1] = tested on: carrageenan induced paw oedema; test: Inhibition of carrageenan induced oedema in rats; format: in vivo, rat; details: CARR induced oedema test
Method: The treated paw was immersed up to the tibio-tarsal articulation into the chamber and the volume of displaced liquid was determined as the degree of the inflammation. Degree of inflammation (ml)=volume after the CARR treatment (ml)−volume before the CARR treatment (ml)
The degree of the anti-inflammatory effect of the treated group (which obtained test agent) was compared to that of the control group (which obtained only vehicle). The test compound and the vehicle were given orally by blunt-ended needle cannula one hour before the CARR treatment. The volume of the treated paw was measured at 3 and 5 hours after the CARR treatment and the change in the degree of inflammation in % was calculated according to the following formula: Anti-inflammatory activity %=100×[control group (ml)−treated group (ml)/control group (ml)]
[…] Anti-inflammatory activity of the compounds was determined in % at 4 and 6 hours after p.o. treatment and ED30 was calculated.

[2] = tested on: acetic acid induced chronic gastric ulcer; test: Acetic acid induced chronic gastric ulcer in rats; format: in vivo, rat; details: 2.0 mg/kg p.o. for seven days
Method: In our experiments the method […] of Okabe et al was used. Male Wistar rats of 150-170 g were narcotize part of the stomach.
The test compound was given p.o. on the fifth day after the operation for seven days. The animals were euthanized with ether after 24 hours of the last dose and the abdomen was macroscopically examined (exravasation, accretion), the stomach was excised and the diameters of ulcers were measured.

Structure (SMILES)	melting point	further results
Cc1ccc(-c2cc(C(F)(F)F)nn2-c2ccc(S(=O)(=O)NOC(C)C(=O)[O-])cc2)cc1.[Na+] (racemic) [Example 6, Disodium (R,S)-2-[4-(5-p-methylphenyl-3-trifluoromethyl-pyrazol-1-yl)-benzenesulfonyl-aminooxy]-propionic acid monohydrate]		anti-inflammatory activity compared with celecoxib [1]: significantly (p<0.05) higher
Cc1ccc(-c2cc(C(F)(F)F)nn2-c2ccc(S(=O)(=O)NOCC(=O)O)cc2)cc1 [Example 7, [4-(5-p-methylphenyl-3-trifluoromethyl-pyrazol-1-yl)-benzenesulfonylaminooxy]-acetic acid]	224 to 225 °C	
CCOC(=O)CONS(=O)(=O)c1ccc(-n2nc(C(F)(F)F)cc2-c2ccc(C)cc2)cc1 [Example 8, [4-(5-p-methylphenyl-3-trifluoromethyl-pyrazol-1-yl)-benzenesulfonylaminooxy]-acetic acid ethyl ester]	143 to 144 °C	
Cc1ccc(-c2cc(C(F)(F)F)nn2-c2ccc(S(=O)(=O)NOCCC(=O)O)cc2)cc1 [Example 9, 3-[4-(5-p-methylphenyl-3-trifluoromethyl-pyrazol-1-yl)-benzenesulfonylaminooxy]-propionic acid]	176 to 178 °C	
CCOC(=O)C(C)ONS(=O)(=O)c1ccc(-n2nc(C(F)(F)F)cc2-c2ccc(C)cc2)cc1 (stereo not shown) [Example 10, 2-[4-(5-p-methylphenyl-3-trifluoromethyl-pyrazol-1-yl)-benzenesulfonylaminooxy]-propionic acid ethyl ester]	137 to 138 °C	
CC(=O)ONS(=O)(=O)c1ccc(-n2nc(C(F)(F)F)cc2-c2ccc(C)cc2)cc1 [Example 11, N-acetoxy-4-(5-p-methylphenyl-3-trifluoromethyl-pyrazol-1-yl)-benzenesulamide]	138 to 140 °C	
Cc1ccc(-c2cc(C(F)(F)F)nn2-c2ccc(S(=O)(=O)NOC(=O)c3ccccc3)cc2)cc1 [Example 12, N-benzoyloxy-4-(5-p-methylphenyl-3-trifluoromethyl-pyrazol-1-yl)-benzenesulfonamide]	152 to 155 °C	
Cc1ccc(-c2cc(C(F)(F)F)nn2-c2ccc(S(=O)(=O)NOC(=O)C(C)(C)C)cc2)cc1 [Example 13, N-pivaloyloxy-4-(5-p-methylphenyl-3-trifluoromethyl-pyrazol-1-yl)-benzenesulfonamide]	134 to 136 °C	
COc1ccc2c(c1)c(CC(=O)O)c(C)n2C(=O)c1ccc(Cl)cc1 [Indometacin]		Area of ulcer (mm^2) [2]: 39.0 ± 5** mm^2; Change of bodyweight (g) + (increase) − (decrease) [2]: +2 ± 0.6 g

Reference: patent US7723370B2, “1, 2-diaryl pyrazoles useful as analgetic and antiinflammatory agents” (Richter Gedeon Vegyeszeti Gyar RT., priority 2005, dated 2010)
